# Experiments:
# wild type (wt) BA2930 = wild type (wt) BA2930 (Bacillus anthracis, UniProt A0A3P1UCA6); assay type: binding
# BA2930 = assay type: biochemical, Bacillus anthracis str. Ames; settings: pH 7.5
# Chain of wild type (wt) BA2930 (A0A3P1UCA6 1-265): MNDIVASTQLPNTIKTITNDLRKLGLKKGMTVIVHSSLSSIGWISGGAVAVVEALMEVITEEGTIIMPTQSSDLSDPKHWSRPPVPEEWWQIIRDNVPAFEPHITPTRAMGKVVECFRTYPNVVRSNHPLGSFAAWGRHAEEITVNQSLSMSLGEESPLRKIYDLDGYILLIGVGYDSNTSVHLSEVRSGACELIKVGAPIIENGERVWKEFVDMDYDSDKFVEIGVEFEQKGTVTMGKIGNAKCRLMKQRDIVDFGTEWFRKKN
Structure (SMILES),N (stoichiometry) (wild type (wt) BA2930),ΔH (wild type (wt) BA2930) [kcal/mol],−TΔS (wild type (wt) BA2930) [kcal/mol],Kd (wild type (wt) BA2930; pH 7.5) [µM],chemical modification by the enzyme (TLC) (BA2930)
"CC(C)(COP(=O)(O)OP(=O)(O)OC[C@H]1O[C@@H](n2cnc3c(N)ncnc32)[C@H](O)[C@@H]1OP(=O)(O)O)[C@@H](O)C(=O)NCCC(=O)NCCS [CoA, Coenzyme A]",1.000±0.031,-12.47 ± 0.53,-5.36,,
"CC(=O)SCCNC(=O)CCNC(=O)[C@H](O)C(C)(C)COP(=O)(O)OP(=O)(O)OC[C@H]1O[C@@H](n2cnc3c(N)ncnc32)[C@H](O)[C@@H]1OP(=O)(O)O [AcCoA, Acetyl Coenzyme A]",1.140±0.013,-21.71 ± 0.46,-15.61,33.4 ± 2.53,
NCC[C@H](O)C(=O)N[C@@H]1C[C@H](N)[C@@H](O[C@H]2O[C@H](CN)[C@@H](O)[C@H](O)[C@H]2O)[C@H](O)[C@H]1O[C@H]1O[C@H](CO)[C@@H](O)[C@H](N)[C@H]1O [Amikacin],,,,,modified by the enzyme
NC[C@H]1O[C@H](O[C@H]2[C@H](O)[C@@H](O[C@H]3O[C@H](CO)[C@@H](O)[C@H](N)[C@H]3O)[C@H](N)C[C@@H]2N)[C@H](O)[C@@H](O)[C@@H]1O [kanamycin],,,,,modified by the enzyme
NC[C@H]1O[C@H](O[C@H]2[C@H](O)[C@@H](O[C@H]3O[C@H](CO)[C@@H](O)[C@H](N)[C@H]3O)[C@H](N)C[C@@H]2N)[C@H](N)C[C@@H]1O [tobramycin],,,,,modified by the enzyme

# Source: PMC3131501 (Journal of molecular biology, 2011)
